Earlier results on 1 substance are cited in patent publication US20240374689A1 (Longevity Biotech, Inc., priority 2010, published 2024).

The conditions of the series: in humans.

GLP-1: the plasma half-life was 2 min.
